Source: ChEMBL document CHEMBL1126253, “Energy aspects of oil/water partition leading to the novel hydrophobic parameters for the analysis of quantitative structure-activity relationships” (J Med Chem, 1992)

How the values were obtained:
[1] = Partition coefficient (logD2.0); type: physicochemical; conditions: octanol/water
[2] = log (1/C') was determined; type: ADME
Rattus norvegicus [3] = organism: Rattus norvegicus; test: Concentration of the drug in the kidney of rat; type: ADME, organism-based; conditions: in vivo
Rattus norvegicus [4] = organism: Rattus norvegicus; test: Concentration of the drug in the liver of rat; type: ADME, organism-based; conditions: in vivo
Culicidae = test: Concentration required to kill 50% of the mosquito larva in 24 hr.; type: organism-based; conditions: in vivo

| logD ([1]; pH 2, read-out: logD) | Log M (Rattus norvegicus [3]) | Log M (Rattus norvegicus [4]) | Compound | Log 1/C [2] | further results |
| --- | --- | --- | --- | --- | --- |
| 3.42 |  |  | CCCc1ccc(C(=O)O)cc1 |  |  |
| 2.27 |  |  | Cc1ccccc1C(=O)O [TOLUIC ACID] |  |  |
|  | 1.83 | 1.71 | Cc1cccc(C(=O)O)c1 |  |  |
| 2.99 |  |  | O=C(O)c1cccc(C(F)(F)F)c1 |  |  |
| 1.2 |  |  | O=C(O)c1ccccc1[N+](=O)[O-] | 1.54 |  |
| 1.32 | -0.1 | -0.29 | CC(=O)Nc1cccc(C(=O)O)c1 |  |  |
| 3.18 |  |  | O=C(O)c1ccc(C(F)(F)F)cc1 |  |  |
| 2.14 |  |  | O=C(O)c1ccccc1Br | 1.9 |  |
| 0.55 |  |  | NS(=O)(=O)c1ccc(C(=O)O)cc1 [CARZENIDE] |  |  |
|  | 0.89 | 0.92 | CCOc1ccc(C(=O)O)cc1 |  |  |
| 0.22 | 0.45 | 0.2 | CN(C)c1cccc(C(=O)O)c1 |  |  |
| 1.63 | 1.57 | 0.62 | N#Cc1ccc(C(=O)O)cc1 |  |  |
| 1.27 | -0.64 | -0.08 | CC(=O)Nc1ccc(C(=O)O)cc1 [ACEDOBEN] |  |  |
| 3.28 |  |  | CC(C)c1ccc(C(=O)O)cc1 |  |  |
|  | 1.44 | 1.28 | O=C(O)c1ccccc1 [BENZOIC ACID] |  |  |
|  | 1.23 | 0.73 | O=C(O)c1cccc([N+](=O)[O-])c1 | 0.22 | logD [1]: 1.69 |
| 2.89 |  |  | CCc1ccc(C(=O)O)cc1 |  |  |
| 1.76 |  |  | O=Cc1ccc(C(=O)O)cc1 |  |  |
| -0.79 | 1.45 | 0.76 | Nc1cccc(C(=O)O)c1 [3-AMINOBENZOIC ACID] | -1 |  |
| 1.98 | 1.35 | 1.34 | COc1cccc(C(=O)O)c1 | 0.29 |  |
| 1.52 |  |  | O=C(O)c1ccccc1F | 1.82 |  |
| 2.45 |  |  | O=C(O)c1ccccc1I | 1.19 |  |
| 3.09 |  |  | CCCOc1ccc(C(=O)O)cc1 |  |  |
| 1.03 |  |  | NCc1ccc(C(=O)O)cc1 [AMINOMETHYLBENZOIC ACID] |  |  |

Further lines, the compound ahead of its results:

| Compound | logD ([1]; pH 2, read-out: logD) | Log M (Rattus norvegicus [3]) | Log M (Rattus norvegicus [4]) | Log 1/C [2] | further results |
| --- | --- | --- | --- | --- | --- |
| O=C(O)c1ccc(Br)cc1 |  |  |  | 1.19 | logD [1]: 2.81; Log LD50: -2.03 |
| O=C(O)c1cc(Cl)ccc1Cl | 2.82 |  |  | 1.63 | Log LD50: -1.77 |
| Nc1ccc(C(=O)O)cc1 | 0.76 | 0.79 | 0.59 | -1.67 | Log LD50: -1.54 |
| COc1ccc(C(=O)O)cc1 [p-ANISIC ACID] | 1.95 | 1 | 1.09 | -0.66 | Log LD50: -1.6 |
| N#Cc1cccc(C(=O)O)c1 | 1.65 | 0.95 | 0.69 |  |  |
| CN(C)c1ccc(C(=O)O)cc1 | 1.28 | 0.08 | 0.17 |  |  |
| Cc1ccc(C(=O)O)cc1 [4-METHYLBENZOIC ACID] |  |  |  |  | logD [1]: 2.26 |
| O=C(O)c1ccc(Cl)c(Cl)c1 |  |  |  | 2.47 | logD [1]: 3.25; Log LD50: -2.28 |
| O=C(O)c1cccc(Br)c1 |  |  |  | 1.71 | logD [1]: 2.86 |
| O=C(O)c1ccc2ccccc2c1 [BETA-NAPHTOIC ACID] | 2.78 |  |  |  | Log LD50: -1.92 |
| O=C(O)c1ccc(I)cc1 |  |  |  | 0.99 | logD [1]: 3.05; Log LD50: -2.31 |
| Nc1ccccc1C(=O)O [ANTHRANILIC ACID] | 0.51 |  |  |  |  |
| O=C(O)c1cccc(O)c1 [3-HYDROXYBENZOIC ACID] |  |  |  | -0.99 | logD [1]: 1.55 |
| O=C(O)c1cc(I)cc(I)c1I [2,3,5-TRIIODOBENZOIC ACID] | 3.45 |  |  |  |  |
| [N-]=[N+]=Nc1ccc(C(=O)O)cc1 | 2.54 |  |  |  |  |
| O=C(O)c1ccc(F)cc1 | 2.05 |  |  | 1.27 | Log LD50: -1.85 |
| CCCCc1ccc(C(=O)O)cc1 | 3.63 |  |  |  |  |
| O=C(O)c1c(Cl)cccc1Cl | 1.8 |  |  |  | Log LD50: -1.22 |
| O=C(O)c1ccc([N+](=O)[O-])cc1 [4-NITROBENZOIC ACID] |  | 1.02 | 0.79 |  | logD [1]: 1.84; Log LD50: -1.52 |
| O=C(O)c1ccc(O)cc1 [PARABEN] | 1.41 |  |  | -1.69 | Log LD50: -1.29 |
| O=C(O)c1ccccc1Cl |  |  |  | 2.15 | Log LD50 (Culicidae): -1.62; logD [1]: 2.02 |
| O=C(O)c1cccc(I)c1 |  |  |  | 1.29 | logD [1]: 3.13 |
| O=C(O)c1cccc2ccccc12 [NAPHTHOIC ACID] | 2.98 |  |  |  | Log LD50: -1.46 |
| O=C(O)c1cccc(Cl)c1 |  | 1.79 | 1.57 | 2.16 | logD [1]: 2.72; Log LD50: -2 |
